Results taken from publication PMC9344054, “Studies on Chemical Characterization of Ginkgo Amillaria Oral Solution and Its Drug–Drug Interaction With Piceatannol 3′-O-β-D-Glucopyranoside for Injection” (Frontiers in Pharmacology, 2022).

How the values were obtained:
UGT1A9 = test: Metabolism of PG based on UGTs, rat liver microsomes with inhibitor niflumic acid; format: in vitro ADME; details: PG 10 μmol L−1, niflumic acid 10 μmol L−1, p < 0.0001
Description: The incubation mixtures consisted of 1 mg mL^−1 of rat liver microsomes, 1 mmol L^−1 of UDPGA and 10 μmol L^−1 of PG, tris-HCl (pH = 7.4) and inhibitor (pazopanib (50 μmol L^−1)), niflumic acid (10 μmol L^−1), and fluconazole (50 μmol L^−1). The incubation system was the same as that in “2.4.1.,” whereas polydatin (20 μg mL^−1) was selected as the IS. Detection and analysis conditions based on UPLC-QQQ-MS were the same as those in “2.4.2.” The MRM transitions, cone voltage, and collision voltage of the target compounds and IS are shown in Supplementary Table S1.

[1] = rats, 2020, cited from earlier work
[2] = Identification of metabolites of PG in vivo (plasma, bile, urine, feces); set-up: species or system rat; details: rats
Description: Nine Sprague–Dawley (SD) male rats (200 ± 20 g) were purchased from Beijing Vital River Laboratory Animal Technology Co., Ltd. (license number: SCXK (Beijing) 2016-0006).
The plasma samples were the same as in the pharmacokinetic experiment; PGI (9 mg kg^−1) was injected into the tail vein of three rats to collect the bile samples for 0–6 h, and saline (9 mg kg^−1) was injected into the tail vein of three rats to collect the normal bile samples. PGI (9 mg kg^−1) was injected into the tail vein of three rats to collect urine (0–4 h) samples and feces (0–6 h) samples after collecting the blank urine and feces samples. All samples were stored at −80℃ for further analysis.
(§1) Plasma samples: 40 μl of plasma samples at different time points were taken and mixed together in a 2 ml centrifuge tube; 1,280 μl of ice acetonitrile was added. The mixture was vortexed for 3 min and centrifuged at 13,200 × g under 4℃ for 10 min. The supernatant was transferred to another centrifuge tube and dried with nitrogen, re-dissolved with 60 μl of 80% methanol-H2O (v/v). For further LC-MS analysis, 3 μl of the supernatant was injected.
Bile samples: 100 μl of bile sample was taken using a 0.22 μm filter, the mixture was vortexed for 3 min, and centrifuged at 13200 × g under 4℃ for 10 min. For further LC-MS analysis, 3 μl of the supernatant was injected.
Fecal samples: 100 mg of the sample was weighed into a 1.5 ml centrifuge tube, 400 μl of ice acetonitrile was added, and the mixture was vortexed for 3 min and centrifuged at 13,200 × g under 4℃ for 10 min. For further LC-MS analysis, 3 μl of the supernatant was injected.
as §1, with “Urine sample: 600” for “Plasma samples: 40”, “urine sample was” for “plasma samples at different time points were”, “taken out,” for “taken”, “2,400” for “mixed together in a 2 ml centrifuge tube; 1,280”
An ultrahigh-performance liquid chromatography-mass spectrometer (Waters, United States) was performed for separation and detection. A Waters ACQUITY UPLC HSS T3 column (2.1 × 100 mm, 1.8 μm) was employed at 30℃ with a flow rate of 0.3 ml min^−1. The mobile phase consisted of acetonitrile (B) and water containing 0.1% FA ([…]). The following linear gradient was used: 0–0.5 min: 5–7% B; 0.5–2.5 min: 7–8.8% B; 2.5–5.5 min: 8.8–16.9% B; 5.5–14 min: 16.9–24.7% B; 14–23 min: 24.7–52% B; and 23–30 min: 52–95% B.
DDA was performed using the Q Exactive™ hybrid quadrupole–Orbitrap mass spectrometer both in negative and positive mode. […]

**Q.** Which results are given for OC[C@H]1O[C@@H](Oc2cc(/C=C/c3cc(O)cc(O)c3)ccc2O)[C@H](O)[C@@H](O)[C@@H]1O [PG, Piceatannol-3′-O-β-D-glucopyranoside]?
**A.** metabolism of PG by UGT1A9 (UGT1A9): mainly metabolized by UGT1A9; excretion of the prototype of PG ([1]; 40.0 mg kg−1 PG, tail vein and intragastric administration, ref Xu): mainly excreted through urine; distribution ([1]; ref Chai, 2019, Xu): widely distributed; elimination rate ([1]; ref Chai, 2019, Xu): fast elimination rate; excretion ([1]; ref Chai, 2019, Xu): mainly excreted by urine; kinetics ([1]; ref Chai, 2019, Xu): linear kinetics; metabolites in fecal samples [2]: No metabolites were detected; metabolic route of PG in vivo ([2]; PGI 9 mg kg−1 tail vein): mainly undergoes a phase II binding reaction mediated by UGT and SULT; number of metabolites identified in bile ([2]; PGI 9 mg kg−1 tail vein, bile 0–6 h, all phase II): five; number of metabolites identified in plasma ([2]; PGI 9 mg kg−1 tail vein, all phase II metabolites): four
